36 molecules from patent publication EP3928779A1 (Chugai Seiyaku Kabushiki Kaisha, priority 2014, dated 2016) can be followed below.

This assay deals with rat small-intestinal brush border membrane vesicles. In words: Inhibitory effect on 33PO4 uptake into rat small-intestinal brush border membrane vesicles (rapid filtration method). The class given is biochemical. Conditions: 33PO4 uptake into rat small-intestinal BBMVs; test compound 1 µM; reacted for 60 seconds. The method, boiled down:
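Uptake of ^33PO4 was measured by rapid filtration and liquid scintillation counting of filter-retained vesicles, after quenching with ice-cold 110 mM NaCl/1 mM KH2PO4/10 mM HEPES pH 7.5. Vesicles were brush border membranes from the upper small intestine of female Wistar rats aged 4–5 weeks.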
As for `CN1N(Cc2ccc(OCCN3CCOCC3)c(F)c2F)C(=O)C(C(=O)Nc2ccc(Br)c(C(F)(F)F)n2)=C(O)C12CCCCC2` [Example 298], the “Rate of uptake inhibition (%) (1 µM)” value was 10%.

Consider `CN1N(Cc2cccc(F)c2F)C(=O)C(C(=O)Nc2cc(C(F)(F)F)ccc2-c2ccc(C(F)(F)F)nc2)=C(O)C1(C)C` [Example 307], for which the “Rate of uptake inhibition (%) (1 µM)” value is recorded as 41%. In the case of `CN1N(Cc2ccc(OCCN3CCOCC3)c(F)c2F)C(=O)C(C(=O)Nc2ccc(C(F)(F)F)cc2-c2ccc(C(F)(F)F)nc2)=C(O)C12CCCC2` [Example 287], the “Rate of uptake inhibition (%) (1 µM)” value is reported as 47%. The same measure for `C[C@]12CCCN1N(Cc1cccc(F)c1F)C(=O)C(C(=O)Nc1ccc(C(F)(F)F)cc1-c1cncc(C#N)c1)=C2O` [Example 82]: 100%; for `CN1N(Cc2ccc(OCCN3CCOCC3)c(F)c2F)C(=O)C(C(=O)Nc2ccc(C(F)(F)F)cc2-c2cc(C(F)(F)F)ncn2)=C(O)C1(C)C` [Example 313, 2-[[2,3-Difluoro-4-(2-morpholin-4-ylethoxy)phenyl]methyl]-5-hydroxy-1,6,6-trimethyl-3-oxo-N-[4-(trifluoromethyl)-2-[6-(trifluoromethyl)pyrimidin-4-yl]phenyl]pyridazine-4-carboxamide]: 65%; for `CN1N(Cc2ccc(OCCCCCOC[C@H](O)CO)c(F)c2F)C(=O)C(C(=O)Nc2ccc(C(F)(F)F)cc2-c2ccc(C(F)(F)F)nc2)=C(O)C12CCCC2` [Example 388]: 15%. To `C[C@]12CCCN1N(Cc1ccc(Cl)cc1)C(=O)C(C(=O)Nc1ccc(C(F)(F)F)cc1-c1cc(C(F)(F)F)ncn1)=C2O` [Example 182] belongs 86%. The same measure for “(4aR)-4a-Ethyl-1-[(3-fluorophenyl)methyl]-4-hydroxy-N-[5-methyl-2-(trifluoromethyl)furan-3-yl]-2-oxo-6,7-dihydro-5H-pyrrolo[1,2-b]pyridazine-3-carboxamide [Example 9]”: 63%; for `C[C@@H]1COC[C@H](C)N1CCOc1ccc(CN2C(=O)C(C(=O)Nc3ccc(C(F)(F)F)cc3-c3cc(C(F)(F)F)ncn3)=C(O)C3(CCC3)N2C)c(F)c1F` [Example 344]: 58%. Regarding `Cc1c(Cl)ncnc1-c1cc(C(F)(F)F)ccc1NC(=O)C1=C(O)[C@H](C(C)(C)C)N(C)N(Cc2ccc(OCCN3CCOCC3)c(F)c2F)C1=O` [Example 276], the “Rate of uptake inhibition (%) (1 µM)” value was found to be 68%.

For “(4aR)-1-[(2,3-Difluorophenyl)methyl]-4-hydroxy-N-[5-methyl-2-(trifluoromethyl)furan-3-yl]-2-oxo-4a-propyl-6,7-dihydro-5H-pyrrolo[1,2-b]pyridazine-3-carboxamide [Example 12]”, the “Rate of uptake inhibition (%) (1 µM)” value amounted to 27%. To `C[C@]12CCCN1N(Cc1c(Cl)cc(OCCN3CCOCC3)cc1Cl)C(=O)C(C(=O)Nc1ccc(C(F)(F)F)nc1-c1ccc(C(F)(F)F)nc1)=C2O.Cl` [Example 148, (4aR)-1-[[2,6-Dichloro-4-(2-morpholin-4-ylethoxy)phenyl]methyl]-4-hydroxy-4a-methyl-2-oxo-N-[6-(trifluoromethyl)-2-16-(trifluoromethyl)pyridin-3-yl]pyridin-1-yl]-6,7-dihydro-5H-pyrrolo[1,2-bipyridazine-3-carboxamide hydrochloride] belongs 75%; to `CN1N(Cc2ccc(OCCN3CCOCC3)c(F)c2F)C(=O)C(C(=O)Nc2ccc(C(F)(F)F)cc2-c2ccc(C(F)(F)F)nc2)=C(O)C12CCC2` [Example 282], 55%. In the case of `COc1cccc(-c2cc(C(F)(F)F)ccc2NC(=O)C2=C(O)[C@@]3(C)CCCN3N(Cc3ccc(OCc4ccncc4)c(F)c3F)C2=O)c1OC` [Example 151], the “Rate of uptake inhibition (%) (1 µM)” value is recorded as 92%. For `CN1N(Cc2ccc(OCCCCOCCCO)c(F)c2F)C(=O)C(C(=O)Nc2ccc(C(F)(F)F)cc2-c2cc(C(F)(F)F)ncn2)=C(O)C12CCCC2` [Example 399], the “Rate of uptake inhibition (%) (1 µM)” value stood at 42%. To `CN1N(Cc2ccc(OCCn3cncn3)c(F)c2F)C(=O)C(C(=O)Nc2ccc(C(F)(F)F)cc2-c2cc(C(F)(F)F)ncn2)=C(O)C12CCC2` [Example 352] belongs 27%. As to `Cc1ccc(CN2C(=O)C(C(=O)Nc3ccc(C(F)(F)F)cc3-c3cc(C(F)(F)F)ncn3)=C(O)[C@@]3(C)CCCN23)cc1` [Example 187], the “Rate of uptake inhibition (%) (1 µM)” value was 80%. Consider `CN(CCOc1ccc(CN2C(=O)C(C(=O)Nc3ccc(C(F)(F)F)cc3-c3cc(C(F)(F)F)ncn3)=C(O)C3(CCC3)N2C)c(F)c1F)C1COC1` [Example 402, 6-(2,3-Difluoro-4-(2-(methyl(oxetan-3-yl)amino)ethoxy)benzyl)-9-hydroxy-5-methyl-7-oxo-N-(4-(trifluoromethyl)-2-(6-(trifluoromethyl)pyrimidin-4-yl)phenyl)-5,6-diazaspiro[3.5]non-8-ene-8-carboxamide], for which the “Rate of uptake inhibition (%) (1 µM)” value is recorded as 54%.

Regarding `C[C@]12CCCN1N(Cc1cccc(F)c1Cl)C(=O)C(C(=O)Nc1ccc(C(F)(F)F)cc1-c1ccc(C(F)(F)F)nc1)=C2O` [Example 201], the “Rate of uptake inhibition (%) (1 µM)” value is 77%. The same measure for `C[C@H]1COC[C@H](C)N1CCOc1ccc(CN2C(=O)C(C(=O)Nc3ccc(C(F)(F)F)cc3-c3cc(C(F)(F)F)ncn3)=C(O)C3(CCC3)N2C)c(F)c1F` [Example 343]: 68%; for `CN(C[C@H](O)[C@@H](O)[C@H](O)[C@H](O)CO)C(=O)CCCOc1ccc(CN2C(=O)C(C(=O)Nc3ccc(C(F)(F)F)cc3-c3cc(C(F)(F)F)ncn3)=C(O)C3(CCCC3)N2C)c(F)c1F` [Example 418, 7-[[2,3-Difluoro-4-[4-[methyl-[(2S,3R,4R,5R)-2,3,4,5,6-pentahydroxyhexyl]amino]-4-oxobutoxy]phenyl]methyl]-10-hydroxy-6-methyl-8-oxo-N-[4-(trifluoromethyl)-2-[6-(trifluoromethyl)pyrimidin-4-yl]phenyl]-6,7-diazaspiro[4.5]dec-9-ene-9-carboxamide]: 29%.

Take `C[C@]12CCCN1N(Cc1ccccc1Cl)C(=O)C(C(=O)Nc1cc(F)c(Br)c(F)c1)=C2O` [Example 219]: the “Rate of uptake inhibition (%) (1 µM)” value came out at 95%.

Regarding `C[C@]12CCCN1N(Cc1ccccc1Cl)C(=O)C(C(=O)Nc1ccc(C(F)(F)F)cc1-c1cc(C(F)(F)F)ncn1)=C2O` [Example 180], the “Rate of uptake inhibition (%) (1 µM)” value stood at 75%.

Take `CN1N(Cc2ccc(C#CCN3CCOCC3)c(F)c2F)C(=O)C(C(=O)Nc2ccc(Cl)cc2-c2cc(C(F)(F)F)ncn2)=C(O)C1(C)C` [Example 316, N-[4-Chloro-2-[6-(trifluoromethyl)pyrimidin-4-yl]phenyl]-2-[[2,3-difluoro-4-(3-morpholin-4-ylprop-1-ynil)phenyl]methyl]-5-hydroxy-1,6,6-trimethyl-3-oxopyridaxine-4-carboxamide]: the “Rate of uptake inhibition (%) (1 µM)” value came to 64%. For the molecule `CCN1[C@@H](C(C)(C)C)C(O)=C(C(=O)Nc2ccc(Cl)cc2-c2ccc(C(F)(F)F)nc2)C(=O)N1Cc1cccc(F)c1F` [Example 245], the “Rate of uptake inhibition (%) (1 µM)” value amounted to 40%.

With `CC(=O)N(C)CCN(C)CCOc1ccc(CN2C(=O)C(C(=O)Nc3ccc(C(F)(F)F)cc3-c3cc(C(F)(F)F)ncn3)=C(O)C3(CCC3)N2C)c(F)c1F` [Example 354], the “Rate of uptake inhibition (%) (1 µM)” value worked out at 31%.

As for `CN1N(Cc2ccc(OCCN3CCC(N4CCOCC4)CC3)c(F)c2F)C(=O)C(C(=O)Nc2ccc(C(F)(F)F)cc2-c2cc(C(F)(F)F)ncn2)=C(O)C12CCCC2` [Example 374], the “Rate of uptake inhibition (%) (1 µM)” value turned out to be 42%. To `CN1[C@@H](C(C)(C)C)C(O)=C(C(=O)Nc2ccc(C(F)(F)F)cc2C(F)(F)F)C(=O)N1Cc1ccc(OCCN2CCOCC2)c(F)c1F` [Example 277] belongs 41%. To `COc1cc(CN2C(=O)C(C(=O)Nc3ccc(C(F)(F)F)cc3-c3ccc(C(F)(F)F)nc3)=C(O)[C@@]3(C)CCCN23)cc(OC)c1` [Example 202] belongs 75%; to `CSc1ccc(-c2cc(C(F)(F)F)ccc2NC(=O)C2=C(O)[C@@]3(C)CCCN3N(Cc3ccc(OCCN4CCOCC4)c(F)c3F)C2=O)cn1` [Example 103], 78%. For the molecule `COC(=O)CN(C)CCOc1ccc(CN2C(=O)C(C(=O)Nc3ccc(C(F)(F)F)cc3-c3cc(C(F)(F)F)ncn3)=C(O)C3(CCCC3)N2C)c(F)c1F` [Example 368], the “Rate of uptake inhibition (%) (1 µM)” value came out at 26%. `C[C@]12CCCN1N(Cc1cc(F)cc(F)c1)C(=O)C(C(=O)Nc1cc(F)c(Br)c(F)c1)=C2O` [Example 190]: the “Rate of uptake inhibition (%) (1 µM)” value was 84%. `C[C@]12CCCN1N(Cc1c(F)cc(OCCCCCCOC[C@H](O)CO)cc1F)C(=O)C(C(=O)Nc1ccc(C(F)(F)F)cc1-c1ccc(C(F)(F)F)nc1)=C2O` [Example 155]: the “Rate of uptake inhibition (%) (1 µM)” value is on record as 77%. To `CN1[C@@H](C(C)(C)C)C(O)=C(C(=O)Nc2ccc(Cl)cc2-c2ccc(C(F)(F)F)nc2)C(=O)N1Cc1cccc(F)c1F` [Example 239] belongs 48%; to `COc1cccc(-c2cc(C(F)(F)F)ccc2NC(=O)C2=C(O)[C@@]3(C)CCCN3N(Cc3ccc(OC[C@H]4CCCO4)c(F)c3F)C2=O)c1OC` [Example 159], 89%. To `COCCN1CCC[C@H]1COc1ccc(CN2C(=O)C(C(=O)Nc3ccc(C(F)(F)F)cc3-c3cc(C(F)(F)F)ncn3)=C(O)C3(CCC3)N2C)c(F)c1F` [Example 404, 6-[[2,3-Difluoro-4-[[(2S)-1-(2-methoxyethyl)pyrrolidin-2-yl]methoxy]phenyl]methyl]-9-hydroxy-5-methyl-7-oxo-N-[4-(trifluoromethyl)-2-[6-(trifluoromethyl)pyrimidin-4-yl]phenyl]-5,6-diazaspiro[3.5]non-8-ene-8-carboxamide] belongs 43%.
